This note sets out measurements from patent publication US20220125913A1, “[…] PEPTIDES, AMINO-ACID SEQUENCES, AND COMPOSITIONS USEFUL FOR SARS-CoV-2 DETECTION AND COVID-19 PREVENTION” (priority 2020, published 2022).

This assay has as its system SARS-CoV-2 circulation lineages in Colombia (B.1, B.1.111, B.1.111+E48K). The settings on record: in vivo, sc.
On to CGKDQVILLNKHIDAYKTFPPTGC [PHE-30], for which the sera neutralizing antibodies result was “detected”.

CGVLSFELLHAPATVSGPKKSTNGC [PHE-14]: the sera neutralizing antibodies entry is “detected”.

For CGVTLAILTALRLSAYSSNIVGC [PHE-20], the sera neutralizing antibodies result was “detected”.
